Test results taken from patent US6809065B2, “Herbicide containing substituted pyrazole derivative as active ingredient” (SDS Biotech K.K., priority 2001, dated 2004).

Assays:
[1] = test system: rice (Oryza sative, variety: Koshihikari); assay: Paddy field treatment (Test Example 3), crop; assay type: in vivo, Oryza sativa; settings: transplanted rice two-leaf period, water surface treatment 10th day after transplantation, 1 kg active ingredient per hectare, evaluated 21st day, lower index = higher safety
Protocol: (§1) In the above evaluation criteria, the term “herbicidal effect” means evaluation to the objective weeds, and a higher index of the evaluation criteria means higher herbicidal effect on the objective weeds. On the other hand, a lower index of the evaluation criteria for the crops means higher safety to the crops. A plastic pot of 130 cm^2 was filled with paddy soil, and soil puddling was carried out to adjust the submerged depth to 4 cm. Then, seeds of Echinochloa crusgalli, Monochoria vaginalis, Ammannia multiflora and Scirpus juncoides were sowed, and rice (Oryza […], variety: Koshihikari) of two-leaf period was transplanted by 2 rice plants of 1 stub per pot at a depth of 3 cm. On the 10th day after the transplantation, a wettable powder composition was prepared in accordance with Formulation Example 1, diluted with water in such an amount that the amount of the active ingredient became 1 kg per hectare, and then dropped to diffuse on the water surface. On the 21st day after the dropping, observation and evaluation were carried out according to the aforesaid criteria.

Setaria viridis [2] = assay: Upland field foliage treatment (Test Example 1); assay type: in vivo; settings: foliage treatment 14th day after sowing, wettable powder, 1 kg active ingredient per hectare, evaluated 21st day after application
Source text: (§2) In the above evaluation criteria, the term “herbicidal effect” means evaluation to the objective weeds, and a higher index of the evaluation criteria means higher herbicidal effect on the objective weeds. On the other hand, a lower index of the evaluation criteria for the crops means higher safety to the crops. A plastic pot of 130 cm^2 was filled with upland soil. Then, seeds of weeds, namely, Setaria viridis, Digitaria adscendens, Chenopodium album and Stellaria media, and seeds of crops, namely, soybean (Glycine max) and wheat (Triticum aestivum), were sowed and covered with soil of about 1 cm thick. On the 14th day after the sowing, a wettable powder composition was prepared in accordance with Formulation Example 1, diluted with water in such an amount that the amount of the active ingredient became 1 kg per hectare, and then uniformly applied to the plant leaf surfaces. On the 21st day after the application, observation and evaluation were carried out according to the aforesaid criteria.

Digitaria adscendens [3] = assay: Upland field foliage treatment (Test Example 1); assay type: in vivo; settings: foliage treatment 14th day after sowing, wettable powder, 1 kg active ingredient per hectare, evaluated 21st day after application
Source text: as §2

Stellaria media [4] = assay: Upland field foliage treatment (Test Example 1); assay type: in vivo; settings: foliage treatment 14th day after sowing, wettable powder, 1 kg active ingredient per hectare, evaluated 21st day after application
Source text: as §2

Chenopodium album [5] = assay: Upland field foliage treatment (Test Example 1); assay type: in vivo; settings: foliage treatment 14th day after sowing, wettable powder, 1 kg active ingredient per hectare, evaluated 21st day after application
Source text: as §2

[6] = test system: wheat (Triticum aestivum); assay: Upland soil treatment (Test Example 2), crop; assay type: in vivo; settings: soil surface treatment next day after sowing, 1 kg active ingredient per hectare, evaluated 21st day, lower index = higher safety
Source text: (§3) In the above evaluation criteria, the term “herbicidal effect” means evaluation to the objective weeds, and a higher index of the evaluation criteria means higher herbicidal effect on the objective weeds. On the other hand, a lower index of the evaluation criteria for the crops means higher safety to the crops. A plastic pot of 130 cm^2 was filled with upland soil. Then, seeds of weeds, namely, Setaria viridis, Digitaria adscendens, Chenopodium album and Stellaria media, and seeds of crops, namely, soybean (Glycine max) and wheat (Triticum aestivum), were sowed and covered with soil of about 1 cm thick. On the next day after the sowing, a wettable powder composition was prepared in accordance with Formulation Example 1, diluted with water in such an amount that the amount of the active ingredient became 1 kg per hectare, and then uniformly applied to the soil surface. On the 21st day after the application, observation and evaluation were carried out according to the aforesaid criteria.

soybean (Glycine max) [7] = assay: Upland soil treatment (Test Example 2), crop; assay type: in vivo; settings: soil surface treatment next day after sowing, 1 kg active ingredient per hectare, evaluated 21st day, lower index = higher safety
Source text: as §3

Monochoria vaginalis = assay: Paddy field treatment (Test Example 3); assay type: in vivo; settings: paddy pot, submerged 4 cm, dropped on water surface 10th day after transplantation, 1 kg active ingredient per hectare, evaluated 21st day
Protocol: as §1

Ammannia multiflora = assay: Paddy field treatment (Test Example 3); assay type: in vivo; settings: paddy pot, submerged 4 cm, dropped on water surface 10th day after transplantation, 1 kg active ingredient per hectare, evaluated 21st day
Protocol: as §1

Scirpus juncoides = assay: Paddy field treatment (Test Example 3); assay type: in vivo; settings: paddy pot, submerged 4 cm, dropped on water surface 10th day after transplantation, 1 kg active ingredient per hectare, evaluated 21st day
Protocol: as §1

Setaria viridis [8] = assay: Upland soil treatment (Test Example 2); assay type: in vivo; settings: soil surface treatment next day after sowing, wettable powder, 1 kg active ingredient per hectare, evaluated 21st day after application
Source text: as §3

Digitaria adscendens [9] = assay: Upland soil treatment (Test Example 2); assay type: in vivo; settings: soil surface treatment next day after sowing, wettable powder, 1 kg active ingredient per hectare, evaluated 21st day after application
Source text: as §3

Stellaria media [10] = assay: Upland soil treatment (Test Example 2); assay type: in vivo; settings: soil surface treatment next day after sowing, wettable powder, 1 kg active ingredient per hectare, evaluated 21st day after application
Source text: as §3

Chenopodium album [11] = assay: Upland soil treatment (Test Example 2); assay type: in vivo; settings: soil surface treatment next day after sowing, wettable powder, 1 kg active ingredient per hectare, evaluated 21st day after application
Source text: as §3

[12] = test system: wheat (Triticum aestivum); assay: Upland field foliage treatment (Test Example 1), crop; assay type: in vivo; settings: foliage treatment 14th day after sowing, 1 kg active ingredient per hectare, evaluated 21st day, lower index = higher safety
Source text: as §2

soybean (Glycine max) [13] = assay: as above; assay type: in vivo; settings: foliage treatment 14th day after sowing, 1 kg active ingredient per hectare, evaluated 21st day, lower index = higher safety
Source text: as §2

Echinochloa spp. = assay: Paddy field treatment (Test Example 3); assay type: in vivo, Echinochloa crusgalli; settings: paddy pot, submerged 4 cm, dropped on water surface 10th day after transplantation, 1 kg active ingredient per hectare, evaluated 21st day
Protocol: as §1

SMILES | Herbicidal activity Oryza sativa [1] | Herbicidal activity Setaria viridis (Setaria viridis [2]) | Herbicidal activity Digitaria adscendens (Digitaria adscendens [3]) | Herbicidal activity Stellaria media (Stellaria media [4]) | Herbicidal activity Chenopodium album (Chenopodium album [5]) | Herbicidal activity Triticum aestivum [6] | Herbicidal activity Glycine max (soybean (Glycine max) [7]) | Herbicidal activity Monochoria vaginalis (Monochoria vaginalis) | Herbicidal activity Ammannia multiflora (Ammannia multiflora) | Herbicidal activity Scirpus juncoides (Scirpus juncoides) | Herbicidal activity Setaria viridis (Setaria viridis [8]) | Herbicidal activity Digitaria adscendens (Digitaria adscendens [9]) | Herbicidal activity Stellaria media (Stellaria media [10]) | Herbicidal activity Chenopodium album (Chenopodium album [11]) | Herbicidal activity Triticum aestivum [12] | Herbicidal activity Glycine max (soybean (Glycine max) [13]) | Herbicidal activity Echinochloa spp. (Echinochloa spp.)
COC=C(Cn1cc(C)c(-c2ccc(F)cc2)n1)C(=O)OC [Compound 14] | 0 (herbicidal effect of not less than 0% by weight and less than 10% by weight) | 5 (herbicidal effect of not less than 90% by weight) | 5 (herbicidal effect of not less than 90% by weight) | 5 (herbicidal effect of not less than 90% by weight) | 5 (herbicidal effect of not less than 90% by weight) | 0 (herbicidal effect of not less than 0% by weight and less than 10% by weight) | 0 (herbicidal effect of not less than 0% by weight and less than 10% by weight) | 5 (herbicidal effect of not less than 90% by weight) | 5 (herbicidal effect of not less than 90% by weight) | 5 (herbicidal effect of not less than 90% by weight) | 5 (herbicidal effect of not less than 90% by weight) | 5 (herbicidal effect of not less than 90% by weight) | 5 (herbicidal effect of not less than 90% by weight) | 5 (herbicidal effect of not less than 90% by weight) | 0 (herbicidal effect of not less than 0% by weight and less than 10% by weight) | 0 (herbicidal effect of not less than 0% by weight and less than 10% by weight) | 5 (herbicidal effect of not less than 90% by weight)
CCc1cc(-c2ccccc2)nn1CC(=COC)C(=O)OC [Compound 36] | 0 (herbicidal effect of not less than 0% by weight and less than 10% by weight) | 5 (herbicidal effect of not less than 90% by weight) | 4 (herbicidal effect of not less than 70% by weight and less than 90% by weight) | 5 (herbicidal effect of not less than 90% by weight) | 5 (herbicidal effect of not less than 90% by weight) | 0 (herbicidal effect of not less than 0% by weight and less than 10% by weight) | 0 (herbicidal effect of not less than 0% by weight and less than 10% by weight) | 3 (herbicidal effect of not less than 50% by weight and less than 70% by weight) | 3 (herbicidal effect of not less than 50% by weight and less than 70% by weight) | 3 (herbicidal effect of not less than 50% by weight and less than 70% by weight) | 4 (herbicidal effect of not less than 70% by weight and less than 90% by weight) | 4 (herbicidal effect of not less than 70% by weight and less than 90% by weight) | 4 (herbicidal effect of not less than 70% by weight and less than 90% by weight) | 4 (herbicidal effect of not less than 70% by weight and less than 90% by weight) | 1 (herbicidal effect of not less than 10% by weight and less than 30% by weight) | 1 (herbicidal effect of not less than 10% by weight and less than 30% by weight) | 3 (herbicidal effect of not less than 50% by weight and less than 70% by weight)
COC=C(Cn1nc(-c2cccc(Cl)c2)cc1SC)C(=O)OC [Compound 38] | 0 (herbicidal effect of not less than 0% by weight and less than 10% by weight) | 4 (herbicidal effect of not less than 70% by weight and less than 90% by weight) | 4 (herbicidal effect of not less than 70% by weight and less than 90% by weight) | 5 (herbicidal effect of not less than 90% by weight) | 5 (herbicidal effect of not less than 90% by weight) | 0 (herbicidal effect of not less than 0% by weight and less than 10% by weight) | 0 (herbicidal effect of not less than 0% by weight and less than 10% by weight) | 4 (herbicidal effect of not less than 70% by weight and less than 90% by weight) | 3 (herbicidal effect of not less than 50% by weight and less than 70% by weight) | 3 (herbicidal effect of not less than 50% by weight and less than 70% by weight) | 4 (herbicidal effect of not less than 70% by weight and less than 90% by weight) | 4 (herbicidal effect of not less than 70% by weight and less than 90% by weight) | 4 (herbicidal effect of not less than 70% by weight and less than 90% by weight) | 4 (herbicidal effect of not less than 70% by weight and less than 90% by weight) | 0 (herbicidal effect of not less than 0% by weight and less than 10% by weight) | 1 (herbicidal effect of not less than 10% by weight and less than 30% by weight) | 3 (herbicidal effect of not less than 50% by weight and less than 70% by weight)
COC=C(Cn1nc(-c2ccccc2Cl)cc1C)C(=O)OC [Compound 4] | 0 (herbicidal effect of not less than 0% by weight and less than 10% by weight) | 4 (herbicidal effect of not less than 70% by weight and less than 90% by weight) | 4 (herbicidal effect of not less than 70% by weight and less than 90% by weight) | 4 (herbicidal effect of not less than 70% by weight and less than 90% by weight) | 5 (herbicidal effect of not less than 90% by weight) | 0 (herbicidal effect of not less than 0% by weight and less than 10% by weight) | 0 (herbicidal effect of not less than 0% by weight and less than 10% by weight) | 5 (herbicidal effect of not less than 90% by weight) | 3 (herbicidal effect of not less than 50% by weight and less than 70% by weight) | 4 (herbicidal effect of not less than 70% by weight and less than 90% by weight) | 4 (herbicidal effect of not less than 70% by weight and less than 90% by weight) | 4 (herbicidal effect of not less than 70% by weight and less than 90% by weight) | 4 (herbicidal effect of not less than 70% by weight and less than 90% by weight) | 4 (herbicidal effect of not less than 70% by weight and less than 90% by weight) | 0 (herbicidal effect of not less than 0% by weight and less than 10% by weight) | 0 (herbicidal effect of not less than 0% by weight and less than 10% by weight) | 4 (herbicidal effect of not less than 70% by weight and less than 90% by weight)
